Reference: patent publication US4931444A, “5-lipoxygenase inhibiting 4-(4-phenyl-1-piperazinyl)phenols” (Janssen Pharmaceutica N.V., priority 1989, dated 1990)

Columns and labels:
[1] = target: T1, 5-lipoxygenase (Rattus norvegicus, UniProt P12527); test: Arachidonate 5-lipoxygenase inhibition in Rat Basophilic Leukemia Cells Supernatant; type: biochemical; design: dose or concentration left out as unconfirmed; conditions: Column A; 5-HPETE and LTB4 formation; read-out: 5-lipoxygenase inhibition in RBL cells supernatant, % inhibition
T1 construct: The supernatant, aliquoted and stored at -70° C., was used as the source of 5-lipoxygenase activity; endogenous in cells; host or cells: Rat basophilic leukemia (RBL) cells, 10,000×g supernatant of the sonicate (crude, not purified)
T1 sequence (P12527 1-673): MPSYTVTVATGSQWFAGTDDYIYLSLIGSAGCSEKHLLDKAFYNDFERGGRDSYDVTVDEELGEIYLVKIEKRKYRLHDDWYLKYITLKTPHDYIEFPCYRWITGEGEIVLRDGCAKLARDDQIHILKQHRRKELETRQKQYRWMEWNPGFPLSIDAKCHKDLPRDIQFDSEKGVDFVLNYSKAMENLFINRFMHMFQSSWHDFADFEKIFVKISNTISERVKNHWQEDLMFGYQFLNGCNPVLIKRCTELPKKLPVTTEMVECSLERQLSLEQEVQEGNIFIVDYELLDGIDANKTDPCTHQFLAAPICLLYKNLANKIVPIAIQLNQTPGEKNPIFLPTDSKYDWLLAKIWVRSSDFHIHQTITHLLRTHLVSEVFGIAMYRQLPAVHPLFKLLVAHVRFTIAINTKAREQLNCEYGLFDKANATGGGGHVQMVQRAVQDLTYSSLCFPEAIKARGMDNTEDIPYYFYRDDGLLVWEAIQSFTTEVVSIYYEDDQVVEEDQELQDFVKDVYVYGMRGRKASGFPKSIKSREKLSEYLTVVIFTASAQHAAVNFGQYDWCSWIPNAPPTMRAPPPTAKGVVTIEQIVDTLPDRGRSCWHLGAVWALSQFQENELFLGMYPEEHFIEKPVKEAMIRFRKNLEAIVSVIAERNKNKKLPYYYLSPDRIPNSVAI

[2] = test system: Dextran-induced edema formation in the ears of mice; test: Inhibition of Dextran-induced edema formation in the ears of mice; type: in vivo, male Swiss mice; conditions: Mus musculus, po, Column B, at 10 mg/kg body weight, 1 h before dextran, read-out: inhibition of Dextran-induced blueing of the ears of mice, % inhibition
Excerpt: Inhibition of Dextran-induced edema formation in the ears of mice.
Intravenous injection of Dextran T500® (Pharmacia) and pontamine sky-blue dye into mice results in increased vascular permeability and edema formation, characterized by an intense blueing of the ears. Determination of the amount of extravasated dye is presumed to yield a quantitative measure of the 5-lipoxygenase inhibiting activity of the test compounds (Drug. Dev. Res. 8, 213-218, 1986). Unfasted male Swiss mice weighing 24-26 g were used in the experiments which were performed between 13.00 pm and 17.00 pm at an ambient temperature of 22±1° C. The mice were treated orally with a test compound of formula (I) dissolved in a volume of […] of either polyethyleneglycol (PEG 200) or hydroxypropyl cyclodextrine at doses varying between 1.25 and 40 mg per kg bodyweight. In control experiments the mice were administered an identical amount of solvent alone. One hour after treatment there was injected intravenously an isotonic saline solution containing 60 mg/ml Dextran T500® and 13 mg/ml pontamine sky-blue dye in a volume of 0.1 ml per 10 g bodyweight. One hour and forty-five minutes later the animals were sacrificed by ether and their ears were removed. Extraction and quantification of the extravasated dye were performed as described (Drug Dev. Res. 8, 213-218, 1986). The calculated percentage of inhibition of ear blueing upon administration of a compound of formula (I) at a dose of 10 mg/kg bodyweight is shown in the second column of table 12.

| Compound | inhibition [1] | inhibition in vivo at 10 mg/kg [2] |
| --- | --- | --- |
| CC(C(=O)c1ccc(Br)cc1)n1ncn(-c2ccc(N3CCN(c4ccc(O)cc4)CC3)cc2)c1=O (centres unmarked) [Compound 7.16] | 94% | 91% |
| CC(C(=O)c1ccc(Cl)cc1)n1ncn(-c2ccc(N3CCN(c4ccc(O)cc4)CC3)cc2)c1=O (centres unmarked) [Compound 7.15] | 51% | 97% |
| CC(C(=O)c1cccc(Cl)c1)n1ncn(-c2ccc(N3CCN(c4ccc(O)cc4)CC3)cc2)c1=O (centres unmarked) [Compound 7.37] | 100% | 73% |
| CCCCN1CCCSC1=Nc1ccc(N2CCN(c3ccc(O)cc3)CC2)cc1 [Compound 2.01] | 90% | 71% |
